Patent US20250136584A1, “Benzimidazole Or Azabenzimidazole Compound, Preparation Method Therefor And Use Thereof” (Chengdu Di'Ao Jiuhong Pharmaceutical Factory, priority 2022, published 2025)

Assays:
GLP1R = GLP1R (Homo sapiens, UniProt P43220); experiment: Agonist activity on GLP1R/CRE-LUC HEK293 cells (luciferase reporter, ONE-Glo); assay type: cell-based; settings: for EC50: GLP1R/CRE-LUC HEK293 cells, 6 hours incubation, chemiluminescence signal; for activity compared with comparative example compounds PF-06882961, DB02, DB03 and DB06: from Table 1, also much higher than DB04 and DB05
GLP1R, sequence (P43220 24-463): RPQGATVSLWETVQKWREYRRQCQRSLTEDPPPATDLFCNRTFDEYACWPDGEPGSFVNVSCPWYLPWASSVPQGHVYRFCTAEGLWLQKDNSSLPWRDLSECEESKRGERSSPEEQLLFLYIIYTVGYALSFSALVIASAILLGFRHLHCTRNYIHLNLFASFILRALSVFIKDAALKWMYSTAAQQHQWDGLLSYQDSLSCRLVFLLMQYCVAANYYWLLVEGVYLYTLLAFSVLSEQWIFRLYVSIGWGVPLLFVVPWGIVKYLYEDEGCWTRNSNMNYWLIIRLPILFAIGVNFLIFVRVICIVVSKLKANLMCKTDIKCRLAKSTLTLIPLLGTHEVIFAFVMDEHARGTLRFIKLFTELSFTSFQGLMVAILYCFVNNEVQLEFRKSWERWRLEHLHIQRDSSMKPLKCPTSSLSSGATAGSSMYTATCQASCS
Protocol: Logarithmically growing GLP1R/CRE-LUC HEK293 cells (purchased from Nanjing Cobioer) were digested, the digested cells were re-suspended in a DMEM+10% FBS culture medium, and a cell density was adjusted to be 3.5*10^5/mL. The cell solution was added into a 96-well cell culture plate by 100 µL/well, and the plate was cultured overnight in an incubator (37° C., 5% CO2).
A compound was dissolved with DMSO to prepare a storage solution at an initial concentration of 10 mM, an initial concentration of the small molecular compound was 0.2 mM, and the compound was diluted by 3 times and 10 points were diluted, while the 11th point was DMSO. Another 96-well plate was taken, added with 95 μL of cell culture solution (DMEM+10% FBS) in each well, then added with 5 μL of to-be-tested samples at different concentrations in each well, mixed evenly, and then added with 11 μL of to-be-tested samples at different concentrations in each well of the cell culture plate, and each sample had two wells. The culture plate was incubated in an incubator for 6 hours (37° C., […]). The 96-well cell culture plate was taken out, added with 100 μL of ONE-Glo™ reagent in each well, and incubated at room temperature for 10 minutes, and a chemiluminescence signal value was measured with an enzyme-labeled instrument. Data were processed and analyzed by Microsoft Excel and Graphpad Prism6 to obtain an EC50 value of the compound.

hERG potassium channel = target: T1, hERG potassium channel (Homo sapiens, UniProt Q12809); experiment: hERG test, patch clamp on HEK-293 cells stably expressing hERG potassium channel; assay type: cell-based; settings: HEK-293 cell line stably expressing hERG, read-out: IC50 (μM) of inhibitory effect on hERG potassium channel current
T1 construct: host or cells: HEK-293 stably expressing hERG
T1 sequence (Q12809 whole entry): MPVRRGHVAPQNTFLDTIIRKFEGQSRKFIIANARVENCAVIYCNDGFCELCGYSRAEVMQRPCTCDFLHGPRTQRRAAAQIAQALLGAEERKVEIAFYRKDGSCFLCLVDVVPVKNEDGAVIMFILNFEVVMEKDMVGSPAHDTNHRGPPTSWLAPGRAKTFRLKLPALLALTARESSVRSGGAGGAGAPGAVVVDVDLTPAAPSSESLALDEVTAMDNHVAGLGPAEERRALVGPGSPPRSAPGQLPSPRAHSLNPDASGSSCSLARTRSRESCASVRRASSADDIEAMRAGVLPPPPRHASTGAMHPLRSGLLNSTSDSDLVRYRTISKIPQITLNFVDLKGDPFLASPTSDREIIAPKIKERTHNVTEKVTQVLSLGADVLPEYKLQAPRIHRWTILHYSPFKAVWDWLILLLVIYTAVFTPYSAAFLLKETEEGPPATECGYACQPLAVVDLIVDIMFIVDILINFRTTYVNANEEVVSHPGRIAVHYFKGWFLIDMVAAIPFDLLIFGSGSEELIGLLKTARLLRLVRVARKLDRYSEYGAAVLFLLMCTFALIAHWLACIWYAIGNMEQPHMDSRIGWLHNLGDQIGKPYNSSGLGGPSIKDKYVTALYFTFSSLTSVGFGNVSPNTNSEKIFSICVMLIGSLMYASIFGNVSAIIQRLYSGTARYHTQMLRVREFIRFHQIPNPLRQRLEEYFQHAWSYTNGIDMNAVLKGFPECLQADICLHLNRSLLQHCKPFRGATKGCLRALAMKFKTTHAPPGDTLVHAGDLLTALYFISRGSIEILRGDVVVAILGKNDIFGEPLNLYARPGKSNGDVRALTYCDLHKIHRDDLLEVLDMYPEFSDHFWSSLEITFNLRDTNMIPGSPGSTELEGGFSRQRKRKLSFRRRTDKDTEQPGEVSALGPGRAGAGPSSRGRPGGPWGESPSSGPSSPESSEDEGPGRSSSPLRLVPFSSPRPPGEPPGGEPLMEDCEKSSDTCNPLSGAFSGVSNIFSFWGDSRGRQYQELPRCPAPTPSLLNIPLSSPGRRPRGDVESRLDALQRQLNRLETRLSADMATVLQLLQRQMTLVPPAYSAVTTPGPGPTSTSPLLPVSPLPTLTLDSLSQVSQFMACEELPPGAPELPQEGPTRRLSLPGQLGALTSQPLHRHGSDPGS
Protocol: Test object: influences of compounds on an hERG potassium channel current were tested by a full-automatic patch clamp method.
• (1) An HEK-293 cell line stably expressing an hERG potassium channel was adopted, and hERG potassium channel cells were purchased from Creacell Company. • (2) The HEK-293 cell line stably expressing the hERG potassium channel was cultured in a DMEM culture medium containing 10% fetal bovine serum and 0.8 mg/mL G418 at 37° C. under a carbon dioxide concentration of 5%. • (3) Cell passage: the old culture medium was removed, and the cells were washed once with PBS, then added with 1 mL of TrypLE™ Express solution, and incubated at 37° C. for about 0.5 minutes. When the cells were separated from a dish bottom, about 5 mL of complete culture medium preheated at 37° C. was added. A cell suspension was gently blown with a straw to separate the aggregated cells. The cell suspension was transferred to a sterile centrifuge tube and centrifuged at 1000 rpm for 5 minutes to collect the cells. In amplification or maintenance of culture, the cells were inoculated into a 6 cm cell culture dish, and the number of cells inoculated into each cell culture dish was 2.5×10^5 cells (final volume: 5 mL). In order to maintain an electrophysiological activity of cells, a cell density should not exceed 80%. • (4) In patch clamp detection, before the test, the cells were separated by TrypLE™ Express, and 4×10^3 cells were spread on a cover slip and cultured in a 24-well plate (final volume: 500 μL). After 18 hours, the test was carried out for detection. Data analysis:
A current after an effect of each drug concentration and a blank control current
were standardized first, and then an inhibition rate
corresponding to each drug concentration was calculated. A mean number and a standard error were calculated for each concentration, and a semi-inhibitory concentration of each compound was calculated by the following equation: […]
A dosage-dependent effect was nonlinearly fitted by the above equation, wherein C represented a concentration of a test sample, IC50 represented a semi-inhibitory concentration, and h represented a Hill coefficient. Curve fitting and IC50 calculation were completed by IGOR software.

hGLP1R mice = experiment: Glucose tolerance test in hGLP1R mice after single oral administration; assay type: in vivo; settings: 1 mg/kg oral once; for onset of blood glucose reduction compared with comparative example compound DB05 / blood glucose reduction effect compared with comparative example compound DB05: FIG. 1 and FIG. 2; for blood glucose reduction effect compared with PF-06882961: glucose 2 g/kg i.p. 60 minutes later; for blood glucose reduction effect compared with PF-06882961 / blood glucose reduction effect compared with comparative example compound DB05: blood glucose curves and AUC (0 to 120 minutes)
Protocol: Genetically engineered hGLP1R mice, male, purchased from Biocytogen Jiangsu Gene Biotechnology Co., Ltd., were fasted overnight before the glucose tolerance test (IPTGG), without water deprivation. A solvent or corresponding compound was orally administered once, a glucose solution (2 g/kg) was intraperitoneally injected 60 minutes after administration, and a blood glucose value before administration of glucose (equivalent to a blood glucose value of 0 minute) and blood glucose values 15 minutes, 30 minutes, 60 minutes and 120 minutes after administration of glucose were measured. The solvent was 5% DMSO+40% PEG400+55% physiological saline, and a dosage of the compound was 1 mg/kg (n=3).

SMILES	EC50 (GLP1R)	activity compared with comparative example compounds PF-06882961, DB02, DB03 and DB06 (GLP1R)	other results
O=C(O)c1ccc2nc(CC3CCN(c4cccc(OCc5ccc(Cl)c6ccoc56)n4)CC3)n(C[C@@H]3CCO3)c2c1 [Compound 1]	114 nM	–	–
O=C(O)c1ccc2nc(CC3=CCN(c4cccc(OCc5ccc(Cl)c6ccoc56)n4)CC3)n(C[C@@H]3CCO3)c2c1 [Compound 2]	101 nM	–	–
N#Cc1ccc(COc2cccc(N3CCC(Cc4nc5ccc(C(=O)O)cc5n4C[C@@H]4CCO4)CC3)n2)c2occc12 [Compound 3]	65.1 nM	–	–
O=C(O)c1ccc2nc(CC3CC=C(c4cccc(OCc5ccc(Cl)c6ccoc56)n4)CC3)n(C[C@@H]3CCO3)c2c1 (stereo partly drawn) [Compound 7]	20.9 nM	–	IC50 (hERG potassium channel): > 30 µM
O=C(O)c1ccc2nc(CN3CC=C(c4cccc(OCc5cccc6c5oc5ccccc56)n4)CC3)n(C[C@@H]3CCO3)c2c1 [Compound 13]	13.6 nM	higher	–
O=C(O)c1ccc2nc(CN3CC=C(c4cccc(OCc5cccc6c5oc5ccccc56)n4)CC3)n(C[C@@H]3CCO3)c2n1 [Compound 14]	6.76 nM	higher	–
O=C(O)c1ccc2nc(CC3CC=C(c4cccc(OCc5cccc6c5oc5ccccc56)n4)CC3)n(C[C@@H]3CCO3)c2c1 (stereo partly drawn) [Compound 15]	25.8 nM	–	–
N#Cc1ccc(COc2cccc(-c3ccc(Cc4nc5ccc(C(=O)O)cc5n4C[C@@H]4CCO4)c(F)c3)n2)c2occc12 [Compound 19]	3.2 nM	higher	onset of blood glucose reduction compared with comparative example compound DB05 (hGLP1R mice): took effect more quickly; blood glucose reduction effect compared with PF-06882961 (hGLP1R mice): significantly better; blood glucose reduction effect compared with comparative example compound DB05 (hGLP1R mice): significantly better
O=C(O)c1ccc2nc(Cc3cc(F)c(-c4cccc(OCc5ccc(Cl)c6ccoc56)n4)cc3F)n(C[C@@H]3CCO3)c2c1 [Compound 25]	11.5 nM	higher	–
O=C(O)c1ccc2nc(Cc3ccc(-c4cccc(OCc5ccc(Cl)c6ccoc56)n4)cc3F)n(C[C@@H]3CCO3)c2n1 [Compound 38]	7.53 nM	higher	onset of blood glucose reduction compared with comparative example compound DB05 (hGLP1R mice): took effect more quickly; blood glucose reduction effect compared with PF-06882961 (hGLP1R mice): significantly better; blood glucose reduction effect compared with comparative example compound DB05 (hGLP1R mice): significantly better
O=C(O)c1ccc2nc(Cc3ccc(-c4cccc(OCc5cccc6c5oc5ccccc56)n4)cc3F)n(C[C@@H]3CCO3)c2c1 [Compound 61]	–	–	onset of blood glucose reduction compared with comparative example compound DB05 (hGLP1R mice): took effect more quickly; blood glucose reduction effect compared with PF-06882961 (hGLP1R mice): significantly better; blood glucose reduction effect compared with comparative example compound DB05 (hGLP1R mice): significantly better
N#Cc1ccc(COc2cccc(-c3ccc(Cc4nc5ccc(C(=O)O)nc5n4C[C@@H]4CCO4)c(F)c3)n2)c2occc12 [Compound 67]	1.97 nM	higher	–
O=C(O)c1ccc2nc(Cc3ccc(-c4cccc(OCc5ccc(F)c6ccoc56)n4)cc3F)n(C[C@@H]3CCO3)c2c1 [Compound 87]	–	–	IC50 (hERG potassium channel): > 30 µM
O=C(O)c1ccc2nc(Cc3ccc(-c4cccc(OCc5ccc(Cl)c6ccoc56)n4)cc3F)n(C[C@@H]3CCO3)c2c1F [Compound 91]	0.76 nM	higher	–
O=C(O)c1ccc2nc(Cc3ccc(-c4cccc(OCc5ccc(Cl)c6cc(F)oc56)n4)cc3F)n(C[C@@H]3CCO3)c2c1F [Compound 92]	1.76 nM	higher	–
O=C(O)c1ccc2nc(Cc3ccc(-c4nc(OCc5ccc(Cl)c6ccoc56)ccc4F)cc3F)n(C[C@@H]3CCO3)c2c1 [Compound 95]	2.33 nM	higher	–
O=C(O)c1ccc2nc(Cc3ccc(-c4nc(OCc5ccc(Cl)c6ccoc56)c(F)cc4F)cc3F)n(C[C@@H]3CCO3)c2c1 [Compound 96]	3.02 nM	higher	–
O=C(O)c1ccc2nc(Cc3ccc(-c4ccc(F)c(OCc5cccc6c5oc5ccccc56)n4)cc3F)n(C[C@@H]3CCO3)c2c1 [Compound 97]	7.57 nM	higher	–
O=C(O)c1ccc2nc(Cc3c(F)cc(-c4cccc(OCc5ccc(Cl)c6ccoc56)n4)cc3F)n(C[C@@H]3CCO3)c2c1 [Compound 101]	0.69 nM	higher	–
Cc1cc2c(Cl)ccc(COc3cccc(-c4ccc(Cc5nc6ccc(C(=O)O)cc6n5C[C@@H]5CCO5)c(F)c4)n3)c2o1 [Compound 102]	9.1 nM	higher	–
O=C(O)c1ccc2nc(Cc3ccc(-c4ccc(F)c(OCc5ccc(F)c6ccoc56)n4)cc3F)n(C[C@@H]3CCO3)c2c1 [Compound 103]	1.17 nM	higher	–
O=C(O)c1ccc2nc(Cc3ccc(-c4ccc(F)c(OCc5ccc(F)c6cc(Cl)oc56)n4)cc3F)n(C[C@@H]3CCO3)c2c1 [Compound 104]	1.76 nM	higher	IC50 (hERG potassium channel): > 30 µM
O=C(O)c1cc(F)c2nc(Cc3ccc(-c4cccc(OCc5ccc(Cl)c6ccoc56)n4)cc3F)n(C[C@@H]3CCO3)c2c1 [Compound 105]	1.09 nM	higher	–
O=C(O)c1ccc2nc(CC3CC=C(c4ccc(F)c(OCc5ccc(Cl)c6ccoc56)n4)CC3)n(C[C@@H]3CCO3)c2c1 (stereo partly drawn) [Compound 106]	5.87 nM	higher	blood glucose reduction effect compared with PF-06882961 (hGLP1R mice): significantly better
O=C(O)c1ccc2nc(CC3CC=C(c4ccc(F)c(OCc5ccc(Cl)c6cc(Cl)oc56)n4)CC3)n(C[C@@H]3CCO3)c2c1 (stereo partly drawn) [Compound 107]	1.9 nM	higher	blood glucose reduction effect compared with PF-06882961 (hGLP1R mice): significantly better
O=C(O)c1ccc2nc(CC3CC=C(c4cccc(OCc5ccc(Cl)c6cc(Cl)oc56)n4)CC3)n(C[C@@H]3CCO3)c2c1 (stereo partly drawn) [Compound 108]	3.11 nM	higher	–
O=C(O)c1ccc2nc(CN3CC=C(c4cccc(OCc5ccc(Cl)c6ccoc56)n4)CC3)n(C[C@@H]3CCO3)c2c1 [DB02, reference compound]	13.6 nM	–	–
COCCn1c(Cc2ccc(-c3cccc(OCc4ccc(C#N)c5ccoc45)n3)cc2F)nc2ccc(C(=O)O)cc21 [DB04, reference compound]	275 nM	–	–
COCCn1c(Cc2ccc(-c3cccc(OCc4ccc(Cl)c5ccoc45)n3)cc2F)nc2ccc(C(=O)O)cc21 [DB05, reference compound]	312 nM	–	–
